# Several values for one entry are separate records, joined by “and”; a condition that tells them apart may be missing. Equal entries are not always repeated.
# Tests used:
# [1] = Surface tension analysis (DuNouy ring method); format: physicochemical
# Source text: Aggregation of the histamine releaser in the reference solution and the comparative solution(s) can be measured by measuring the surface tension of each of the reference solution and the comparative solution(s) using the DuNouy ring method, as described in PHYSICAL PHARMACY: PHYSICAL CHEMICAL PRINCIPLES IN THE PHARMACEUTICAL SCIENCES, Editors: Alfred Martin, James Swarbrick, Arthur Cammarata, Third Edition, Lea Et Febiger, Philadelphia, 1983. Surface tension may provide a measure of the critical micelle concentration of the histamine releaser in solution and for this reason is an indicator of aggregation of the histamine releaser in the solution. […]
# The surface tension properties of the histamine liberating agent can be evaluated using the DuNouy ring method. […]
# The force required to detach the ring in this manner is provided by a torsion wire and is recorded in dynes on a calibrated dial. […]
# The tensiometer is calibrated with filtered water and the surface tension of a 50 mg/mL solution of Compound 1 in water is evaluated at room temperature.
# The surface tension of each solution is evaluated at room temperature and the results are recorded in a curve of surface tension (y-axis) versus concentration of drug (x-axis).
# [2] = Proton NMR relaxation rates (T1, T2) as measure of aggregation; format: physicochemical; conditions: for T1 / T2: D2O saline (150 mM NaCl)
# Source text: There are two types of NMR relaxation, spin-lattice and spin-spin relaxation, referred to as T1 and T2 values, respectively. T1 and T2 are rate constants which measure the relaxation of NMR magnetization back to equilibrium (hereinafter collectively referred to as “NMR relaxation rates”). For small molecules in what is called the extreme narrowing limit, both T1 and T2 increase in inverse proportion to the rotational tumbling rate tc, which, in turn, is directly proportional to the average size of the aggregate. Thus, for small molecules, increases in T1 and/or T2 rates with the addition of excipient to the solution containing the histamine releaser, in the absence of significant changes in the viscosity of the solution, indicates a decrease in aggregation.
# Compound 1 and excipient (in the various amounts noted below) are dissolved in 200 μL of D2O with 0.15 M NaCl adjusted to pD 3.0 with NaOD and/or DCl for compound stability reasons. Deuterated saline solution is used in the reference solution because critical compound peaks (or signals) overlap when deuterated water is employed. Samples in a titration series are prepared by serial dilutions. All NMR spectra are recorded at 30° C. on a Varian Unity Plus 500 MHz spectrometer. Spectra are referenced to D2O at 4.65 ppm. All spectra are processed using Varian VNMR® software v6.1a. T1 and T2 relaxation rates are measured using the standard inversion-recovery and Carr-Purcell-Meiboom-Gill (CPMG) experiments respectively, both of which are provided with the Varian software. CPMG experiments are described in M. Bulsing, et al., J. Chem. Soc. Chem. Commun. 1201-3 (1981); R. Freeman et al., IN DYNAMIC NMR SPECTROSCOPY, eds. L. Jackman and F. Cotton (1975) pp. 131-162, Academic Press, London and New York; and D. Rabenstein, et al., J. Magn. Reson. 64:541-546 (1985).
# A series of solutions with increasing concentrations of Compound 1 in D2O saline, pD 3.0 are prepared and the NMR relaxation rate constants measured. Both T1S and T2S are measured because the drug, with a molecular weight of 1064.51, could lie outside the extreme motional narrowing limit for NMR, in which case, T1S would be expected to decrease and T2S would be expected to increase with a decrease in aggregation. See, K. Wüthrich, NMR OF PROTEINS AND NUCLEIC ACIDS, (1986) John Wiley Sons, New York.
# A series of solutions containing 80 mM Compound 1 with increasing concentrations of d4-citrate in D2O saline, pD 3.0, are prepared, and the NMR relaxation rates are measured. The data obtained is summarized in Table 2 and reported graphically in FIG. 2.
# A series of solutions containing 80 mM Compound 1 and varying concentrations of CaCl2 and d4-citrate in D2O saline, pD 3.0, are prepared, and the NMR relaxation rates are measured.
# [3] = 80 mM Compound 1, d4-citrate 0.78 mM, pD 3
# [4] = 80 mM Compound 1, d4-citrate 1.56 mM, pD 3
# [5] = 80 mM Compound 1, d4-citrate 3.13 mM, pD 3
# [6] = 80 mM Compound 1, d4-citrate 6.25 mM, pD 3
# [7] = 80 mM Compound 1, d4-citrate 12.5 mM, pD 3
# [8] = 80 mM Compound 1, d4-citrate 25 mM, pD 3
# [9] = 80 mM Compound 1, d4-citrate 50 mM, pD 3
# [10] = 80 mM Compound 1, d4-citrate 100 mM, pD 3
# [11] = vinyl proton, 20 mM Compound 1, pD 3, 30° C.
# [12] = vinyl proton, 40 mM Compound 1, pD 3, 30° C.
# [13] = vinyl proton, 80 mM Compound 1, no excipient (reference solution), pD 3, 30° C.
# [14] = vinyl proton, 160 mM Compound 1, pD 3, 30° C.
compound,measurement,setting,value
"COc1cc2c(cc1OC)[C@H](c1cc(OC)c(OC)c(OC)c1)[N@@+](C)(CCCOC(=O)/C=C(\Cl)C(=O)OCCC[N@+]1(C)CCc3cc(OC)c(OC)cc3[C@H]1Cc1cc(OC)c(OC)c(OC)c1)CC2.[Cl-].[Cl-] [Compound 1, (Z)-2-chloro-1-{3-{(1R,2S)-6,7-dimethoxy-2-methyl-1-[(3,4,5-trimethoxyphenyl)methyl]-1,2,3,4-tetrahydro-2-isoquinolinio}propyl}-4-{3-[(1S,2R)-6,7-dimethoxy-2-methyl-1-(3,4,5-trimethoxyphenyl)-1,2,3,4-tetrahydro-2-isoquinolinio]propyl}-2-butenedioate dichloride]",surface tension versus concentration,"[1]; 1-50 mg/mL in water, room temperature, FIG. 1",concentration dependent surface tension lowering
same,critical micelle concentration,[1]; in water,about 14 mM
same,slowing of relaxation rates compared to the reference solution,"[2]; 80 mM Compound 1, 50 mM d4-citrate, D2O saline, pD 3",at least 25%
same,change in the T1 value (slowing of the relaxation rate) compared to the reference solution,"[2]; 80 mM Compound 1, CaCl2 + d4-citrate, all but the two lowest concentrations of CaCl2 of Table 3",greater than 25%
same,d4-citrate concentration giving maximal effect on decreasing aggregation,"[2]; 80 mM Compound 1, D2O saline, pD 3",50 mM
same,T1,"[2]; 80 mM Compound 1, d4-citrate 0.78 mM + CaCl2 100 mM, pD 3",2.78 s
same,T1,[2]; [3],1.53 s
same,T2,[2]; [3],0.57 s
same,T1,[2]; [4],1.65 s
same,T2,[2]; [4],0.59 s
same,T1,[2]; [5],1.69 s
same,T2,[2]; [5],0.67 s
same,T1,"[2]; 80 mM Compound 1, d4-citrate 5 mM + CaCl2 3.13 mM, pD 3",1.45 s
same,T1,"[2]; 80 mM Compound 1, d4-citrate 5 mM + CaCl2 6.25 mM, pD 3",1.47 s
same,T1,"[2]; 80 mM Compound 1, d4-citrate 5 mM + CaCl2 12.5 mM, pD 3",1.51 s
same,T1,"[2]; 80 mM Compound 1, d4-citrate 5 mM + CaCl2 25 mM, pD 3",1.89 s
same,T1,"[2]; 80 mM Compound 1, d4-citrate 5 mM + CaCl2 50 mM, pD 3",1.94 s
same,T1,"[2]; 80 mM Compound 1, d4-citrate 5 mM + CaCl2 100 mM, pD 3",2.14 s
same,T1,[2]; [6],1.24 s
same,T2,[2]; [6],0.69 s
same,T1,[2]; [7],2.09 s
same,T2,[2]; [7],1.01 s
same,T1,[2]; [8],2.03 s
same,T2,[2]; [8],0.87 s
same,T1,"[2]; 80 mM Compound 1, d4-citrate 50 mM + CaCl2 100 mM, pD 3",2.26 s
same,T1,[2]; [9],2.13 s
same,T2,[2]; [9],1.31 s
same,T1,[2]; [10],1.96 s
same,T2,[2]; [10],0.85 s
same,critical micelle concentration,"[2]; in saline (D2O saline, pD 3)",40 to 80 mM
same,T1,"[2]; vinyl proton, 10 mM Compound 1, pD 3, 30° C.",2.05 s
same,T1,[2]; [11],2.30 s
same,T2,[2]; [11],2.04 s
same,T1,[2]; [12],2.49 s
same,T2,[2]; [12],1.96 s
same,T1,[2]; [13],1.20 s and 1.2 s
same,T2,[2]; [13],0.38 s
same,T1,[2]; [14],0.83 s
same,T2,[2]; [14],0.13 s
